Drawing on patent US20260053932A1, “COMPOUNDS AND METHODS FOR THE TARGETED DEGRADATION OF ANDROGEN RECEPTOR AND ASSOCIATED METHODS OF USE” (Arvinas Operations, Inc., priority 2020, published 2026), this text covers DC50 for 18 compounds.

The assay has as its system androgen receptor (AR) in LNCaP and/or VCaP cells. Kind of assay: Androgen Receptor ELISA assay (AR degradation). Type of assay: cell-based. Particulars: LNCaP and/or VCaP cells; 5 hours incubation; media with R1881; read-out: DC50 Code* (degradation of AR ELISA). In a few lines: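 VCaP cells grown ≥3 days, then treated 5 h with compound in media containing 1 nM R1881 (10× stock). Cells lysed and AR quantified by sandwich ELISA (mouse AR detection Ab, HRP anti-mouse, TMB). DC50 and Dmax derived from AR degradation.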
(An ELISA detects its analyte on a solid surface through an enzyme-linked reagent.)
What is called DC50 is the midpoint of the concentration-degradation curve. With `Cc1cc(O[C@H]2CC[C@H](NC(=O)c3cnc(N4CCC(CN(C(C)C)[C@H]5C[C@H](Oc6cc(F)c7c(c6)C(=O)N(C6CCC(=O)NC6=O)C7=O)C5)CC4)cn3)CC2)cc(C)c1C#N` (stereo partly drawn) [Compound 46, N-((1r,4r)-4-(4-cyano-3,5-dimethylphenoxy)cyclohexyl)-5-(4-((((1r,3r)-3-((2-(2,6-dioxopiperidin-3-yl)-7-fluoro-1,3-dioxoisoindolin-5-yl)oxy)cyclobutyl) (isopropyl)amino)methyl)piperidin-1-yl)pyrazine-2-carboxamide], the half-maximal degradation concentration (DC50) was < 1 nM.

On to `CC(C)N(CC1CCN(c2ccc(C(=O)N[C@H]3CC[C@H](Oc4ccc(C#N)c(Cl)c4)CC3)nn2)CC1)[C@H]1CC[C@H](Oc2ccc3c(c2)C(=O)N(C2CCC(=O)NC2=O)C3=O)CC1` (stereo partly drawn) [Compound 47, N-((1r,4r)-4-(3-chloro-4-cyanophenoxy)cyclohexyl)-6-(4-((((1r,4r)-4-((2-(2,6-dioxopiperidin-3-yl)-1,3-dioxoisoindolin-5-yl)oxy)cyclohexyl) (isopropyl)amino)methyl)piperidin-1-yl)pyridazine-3-carboxamide], for which the half-maximal degradation concentration (DC50) was < 1 nM. On to `N#Cc1ccc(O[C@H]2CC[C@H](NC(=O)c3cnc(N4CCC(CN(CC5COC5)[C@H]5C[C@H](Oc6ccc7c(c6)C(=O)N(C6CCC(=O)NC6=O)C7)C5)CC4)cn3)CC2)cc1Cl` (stereo partly drawn) [Compound 48, N-((1r,4r)-4-(3-chloro-4-cyanophenoxy)cyclohexyl)-5-(4-((((1r,3r)-3-((2-(2,6-dioxopiperidin-3-yl)-3-oxoisoindolin-5-yl)oxy)cyclobutyl)(oxetan-3-ylmethyl)amino)methyl)piperidin-1-yl)pyrazine-2-carboxamide], for which the 50% degradation concentration (DC50) was < 1 nM. `N#Cc1ccc(O[C@H]2CC[C@H](NC(=O)c3ccc(N4CCC(CN5CCN(c6ccc7c(c6F)C(=O)N(C6CCC(=O)NC6=O)C7=O)CC5)CC4)nn3)CC2)cc1Cl` (stereo partly drawn) [Compound 49]: the DC50 is < 1 nM. Consider `CC(=O)N(CC1CCN(c2cnc(C(=O)N[C@H]3CC[C@H](Oc4cc(C)c(C#N)c(C)c4)CC3)cn2)CC1)[C@H]1C[C@H](Oc2ccc3c(c2)C(=O)N(C2CCC(=O)NC2=O)C3=O)C1` (stereo partly drawn) [Compound 50, N-((1r,4r)-4-(4-cyano-3,5-dimethylphenoxy)cyclohexyl)-5-(4-((N-((1r,3r)-3-((2-(2,6-dioxopiperidin-3-yl)-1,3-dioxoisoindolin-5-yl)oxy)cyclobutyl)acetamido)methyl)piperidin-1-yl)pyrazine-2-carboxamide], for which the DC50 is < 1 nM. For `CC(C)N(CC1CCN(c2cnc(C(=O)N[C@H]3CC[C@H](Oc4ccc(C#N)c(Cl)c4)CC3)cn2)CC1)[C@H]1C[C@H](Oc2ccc3c(c2F)C(=O)N(C2CCC(=O)NC2=O)C3=O)C1` (stereo partly drawn) [Compound 52, N-((1r,4r)-4-(3-chloro-4-cyanophenoxy)cyclohexyl)-5-(4-((((1r,3r)-3-((2-(2,6-dioxopiperidin-3-yl)-4-fluoro-1,3-dioxoisoindolin-5-yl)oxy)cyclobutyl) (isopropyl)amino)methyl)piperidin-1-yl)pyrazine-2-carboxamide] the value was < 1 nM; for `N#Cc1ccc(O[C@H]2CC[C@H](NC(=O)c3cnc(N4CCC(CN(CC5COC5)[C@H]5C[C@H](Oc6ccc7c(c6)C(=O)N(C6CCC(=O)NC6=O)C7=O)C5)CC4)cn3)CC2)cc1Cl` (stereo partly drawn) [Compound 53, N-((1r,4r)-4-(3-chloro-4-cyanophenoxy)cyclohexyl)-5-(4-((((1r,3r)-3-((2-(2,6-dioxopiperidin-3-yl)-1,3-dioxoisoindolin-5-yl)oxy)cyclobutyl) (oxetan-3-ylmethyl)amino)methyl)piperidin-1-yl)pyrazine-2-carboxamide], < 1 nM; for `COCC(C)N(CC1CCN(c2cnc(C(=O)N[C@H]3CC[C@H](Oc4ccc(C#N)c(Cl)c4)CC3)cn2)CC1)[C@H]1C[C@H](Oc2ccc3c(c2)C(=O)N(C2CCC(=O)NC2=O)C3=O)C1` (stereo partly drawn) [Compound 55, N-((1r,4r)-4-(3-chloro-4-cyanophenoxy)cyclohexyl)-5-(4-((((1r,3r)-3-((2-(2,6-dioxopiperidin-3-yl)-1,3-dioxoisoindolin-5-yl)oxy)cyclobutyl)(1-methoxypropan-2-yl)amino)methyl)piperidin-1-yl)pyrazine-2-carboxamide], < 1 nM. Then `COc1cc(O[C@H]2CC[C@H](NC(=O)c3cnc(N4CC5(CC(CN(C(C)C)[C@H]6C[C@H](Oc7ccc8c(c7)C(=O)N(C7CCC(=O)NC7=O)C8=O)C6)C5)C4)cn3)CC2)ccc1C#N` (stereo partly drawn) [Compound 56, N-((1r,4r)-4-(4-cyano-3-methoxyphenoxy)cyclohexyl)-5-(6-((((1r,3r)-3-((2-(2,6-dioxopiperidin-3-yl)-1,3-dioxoisoindolin-5-yl)oxy)cyclobutyl) (isopropyl)amino)methyl)-2-azaspiro[3.3]heptan-2-yl)pyrazine-2-carboxamide], with < 1 nM; and `COc1cc(O[C@H]2CC[C@H](NC(=O)c3cnc(N4CC(CN(C(C)C)[C@H]5C[C@H](Oc6ccc7c(c6)C(=O)N(C6CCC(=O)NC6=O)C7=O)C5)C4)nc3)CC2)ccc1C#N` (stereo partly drawn) [Compound 57, N-((1r,4r)-4-(4-cyano-3-methoxyphenoxy)cyclohexyl)-2-(3-((((1r,3r)-3-((2-(2,6-dioxopiperidin-3-yl)-1,3-dioxoisoindolin-5-yl)oxy)cyclobutyl) (isopropyl)amino)methyl)azetidin-1-yl)pyrimidine-5-carboxamide], with < 1 nM; and `COCCN(CC1CCN(c2cnc(C(=O)N[C@H]3CC[C@H](Oc4ccc(C#N)c(Cl)c4)CC3)cn2)CC1)[C@H]1C[C@H](Oc2ccc3c(c2)C(=O)N(C2CCC(=O)NC2=O)C3=O)C1` (stereo partly drawn) [Compound 58, N-((1r,4r)-4-(3-chloro-4-cyanophenoxy)cyclohexyl)-5-(4-((((1r,3r)-3-((2-(2,6-dioxopiperidin-3-yl)-1,3-dioxoisoindolin-5-yl)oxy)cyclobutyl)(2-methoxyethyl)amino)methyl)piperidin-1-yl)pyrazine-2-carboxamide], with < 1 nM. For `CC(C)N(CC1CCN(c2ncc(C(=O)NC3CCC(Oc4ccc(C#N)c(Cl)c4)CC3)cn2)CC1)C1CCC(Oc2ccc3c(c2)C(=O)N(C2CCC(=O)NC2=O)C3=O)CC1` (stereo not drawn) [Compound 59, N-((1r,4r)-4-(3-chloro-4-cyanophenoxy)cyclohexyl)-2-(4-((((1r,4r)-4-((2-(2,6-dioxopiperidin-3-yl)-1,3-dioxoisoindolin-5-yl)oxy)cyclohexyl) (isopropyl)amino)methyl)piperidin-1-yl)pyrimidine-5-carboxamide] the value was < 1 nM; for `CC(C)N(CC1CCN(c2ncc(C(=O)N[C@H]3CC[C@H](Oc4ccc(C#N)c(Cl)c4)CC3)cn2)CC1)[C@H]1C[C@H](Oc2ccc3c(c2)C(=O)N(C2CCC(=O)NC2=O)C3)C1` (stereo partly drawn) [Compound 60, N-((1r,4r)-4-(3-chloro-4-cyanophenoxy)cyclohexyl)-2-(4-((((1r,3r)-3-((2-(2,6-dioxopiperidin-3-yl)-3-oxoisoindolin-5-yl)oxy)cyclobutyl) (isopropyl)amino)methyl)piperidin-1-yl)pyrimidine-5-carboxamide], < 1 nM. For `N#Cc1ccc(O[C@H]2CC[C@H](NC(=O)c3cnc(N4CCC(CN(C5COC5)[C@H]5C[C@H](Oc6ccc7c(c6)C(=O)N(C6CCC(=O)NC6=O)C7=O)C5)CC4)cn3)CC2)cc1Cl` (stereo partly drawn) [Compound 61, N-((1r,4r)-4-(3-chloro-4-cyanophenoxy)cyclohexyl)-5-(4-((((1r,3r)-3-((2-(2,6-dioxopiperidin-3-yl)-1,3-dioxoisoindolin-5-yl)oxy)cyclobutyl) (oxetan-3-yl)amino)methyl)piperidin-1-yl)pyrazine-2-carboxamide], the 50% degradation concentration (DC50) is < 1 nM. Consider `N#Cc1ccc(O[C@H]2CC[C@H](NC(=O)c3cnc(N4CCC(CN(C5CCOC5)[C@H]5C[C@H](Oc6ccc7c(c6)C(=O)N(C6CCC(=O)NC6=O)C7=O)C5)CC4)cn3)CC2)cc1Cl` (stereo partly drawn) [Compound 62, N-((1r,4r)-4-(3-chloro-4-cyanophenoxy)cyclohexyl)-5-(4-((((1r,3r)-3-((2-(2,6-dioxopiperidin-3-yl)-1,3-dioxoisoindolin-5-yl)oxy)cyclobutyl) (tetrahydrofuran-3-yl)amino)methyl)piperidin-1-yl)pyrazine-2-carboxamide], for which the half-maximal degradation concentration (DC50) is < 1 nM. For `COc1cc(O[C@H]2CC[C@H](NC(=O)c3cnc(N4CCC(CN(C(C)C)[C@H]5C[C@H](Oc6ccc7c(c6)C(=O)N(C6CCC(=O)NC6=O)C7)C5)CC4)nc3)CC2)ccc1C#N` (stereo partly drawn) [Compound 63, N-((1r,4r)-4-(4-cyano-3-methoxyphenoxy)cyclohexyl)-2-(4-((((1r,3r)-3-((2-(2,6-dioxopiperidin-3-yl)-3-oxoisoindolin-5-yl)oxy)cyclobutyl) (isopropyl)amino)methyl)piperidin-1-yl)pyrimidine-5-carboxamide] the value was < 1 nM. Then `CCOc1cc(O[C@H]2CC[C@H](NC(=O)c3cnc(N4CCC(CN(C(C)C)[C@H]5C[C@H](Oc6ccc7c(c6)C(=O)N(C6CCC(=O)NC6=O)C7=O)C5)CC4)cn3)CC2)ccc1C#N` (stereo partly drawn) [Compound 64, N-((1r,4r)-4-(4-cyano-3-ethoxyphenoxy)cyclohexyl)-5-(4-((((1r,3r)-3-((2-(2,6-dioxopiperidin-3-yl)-1,3-dioxoisoindolin-5-yl)oxy)cyclobutyl) (isopropyl)amino)methyl)piperidin-1-yl)pyrazine-2-carboxamide], with < 1 nM; and `CC(C)N(CC1CCN(c2cnc(C(=O)N[C@H]3CC[C@H](Oc4ccc(C#N)c(Cl)c4)CC3)cn2)CC1)[C@H]1C[C@H](Oc2ccc3c(c2)C2(CC2)N(C2CCC(=O)NC2=O)C3=O)C1` (stereo partly drawn) [Compound 65, N-((1r,4r)-4-(3-chloro-4-cyanophenoxy)cyclohexyl)-5-(4-((((1r,3r)-3-((2′-(2,6-dioxopiperidin-3-yl)-3′-oxospiro[cyclopropane-1,1′-isoindolin]-6′-yl)oxy)cyclobutyl) (isopropyl)amino)methyl)piperidin-1-yl)pyrazine-2-carboxamide], with < 1 nM.
